Source: US11118208B2, “Methods for modulating protein galactosylation profiles of recombinant proteins using peracetyl galactose” (ARES TRADING S.A., priority 2016, dated 2021)

Assays:
CDC activity = conditions: degalactosylated antibody; cited from earlier work
[1] = test system: mAb1 cells (CHO-S cells expressing IgG1 mAb1); assay: Fed-batch culture of mAb1 cells in deepwell plates (DWP): viable cell density, viability, titer; assay type: cell-based, Chinese hamster
Description: (§1) First assays were performed with an antibody produced in a CHO cell line: CHO-S cells expressing IgG1 mAb1, herein “Cells mAb1” or “mAb1 cells”. “mAb1” is a fully human monoclonal antibody directed against a soluble protein. Its isoelectric point (pI) is about 8.20-8.30.
(§2) Cells expressing mAb1 were inoculated at 0.3×10^6 cells per millilitre (mL), whereas Cells expressing mAb2 were inoculated at 0.2×10^6 cells per millilitre (mL).
(§3) For examples 1-3: A serum-free chemically defined culture medium was used. It was used as it is, or it was supplemented with α- or β-2-F-peracetyl galactose (herein α- or β-2F-pGal; Biosynth & AX Molecules) at different concentrations (0-200 μM before seeding). The concentrations indicated on FIGS. 1, 2, 3 and 4 are the concentrations in α- or β-2F-pGal in the culture medium at day 0, just before the inoculation. The culture medium was fed, on a regular basis, with a chemically defined feed medium, as well as with glucose in order to keep said glucose level in the range of >0 to about 8 g/L (feeds are done at days 3, 5, 7, 10 and 12).
(§4) The cultures were performed in deepwell plates (DWP) with a working volume of 450 μL. They were incubated at 36.5° C., 5% de CO2, 90% humidity and shaken at 320 rpm. Each of the fed-batch culture lasted 14 days. It is well known that experiments in DWP are artificial, although they allow a first screening of culture conditions. In order to confirm that the results obtained in DWP were reproducible at higher scale, similar experiments were also run in TubeSpin® (also called herein shake tubes or ST), with a working volume of 30 mL cell culture (same culture condition than for deepwell plates).
For DWP experiments, viable cell density and viability were measured with the Guava easyCyte® flow cytometer. Antibody titers were measured with the fortéBIO Octet®.
(§5) The cells were cultivated and the results analysed as disclosed in the material and method section. It is noted that the controls (or control conditions) according to the present invention correspond to cells grown without peracetyl galactose.

[2] = test system: galactosylation of mAb1 antibody (mAb1 cells); assay: Glycosylation profile of mAb1 produced in DWP (CGE-LIF); assay type: cell-based, Chinese hamster
Description: as §1, §3, §4
(§6) Glycosylation profiles were established by capillary gel electrophoresis with laser-induced fluorescence (CGE-LIF; for DWP and for Shake tubes experiments) or by Ultra Performance Liquid Chromatography-2-amino-benzamide labelling technique (2AB-UPLC; for Shake tubes experiments). Groups of glycans were defined as thereafter in Table 3.
as §5

[3] = test system: mAb1 cells (CHO-S cells expressing IgG1 mAb1); assay: Fed-batch culture of mAb1 cells in TubeSpin (shake tubes): viable cell density, viability, titer; assay type: cell-based, Chinese hamster; conditions: shake tubes
Description: as §1, §2, §3, §4
(§7) For TubeSpin® experiments, viable cell density and viability were measured with the ViCell®. Antibody titers were measured using Biacore®.

[4] = test system: galactosylation of mAb1 antibody (mAb1 cells); assay: Glycosylation profile of mAb1 produced in TubeSpin (CGE-LIF); assay type: cell-based, Chinese hamster
Description: as §1, §3, §4, §6

mAb1 cells (cell line 1) = assay: Fed-batch culture of mAb1 cells, supplementation as feed after the start of the culture: cell density, viability, titer; assay type: cell-based, Chinese hamster
Description: (§8) For example 4: Additional experiments were run in similar conditions, except with regard to supplementation with α- or β-2-F-peracetyl galactose. In such a case, a serum-free chemically defined culture medium was used, supplemented with α- or β-2-F-peracetyl galactose as mentioned thereafter in Table 2.
as §4, §7
Rather than supplementing the medium prior to inoculation, it was decided to start the galactose analog addition on day 3, 5 or 7 (respectively β-2F-pGal-d3, β-2F-pGal-d5 and β-2F-pGal-d7; see Table 2). Cell line 1 was used for these experiments. […] The peak cell densities were reached on day 7. No significant difference between the control and the β-2F-pGal-d3 supplemented cultures was observed. They both levelled off at 20.8 and 21.2×10^6 viable cells/mL, respectively. […] Overall, it can be assumed that the presence of β-2F-p-galactose induced limited changes on cell growth until day 7. In the second half of the culture, both the cell density and the viability (FIG. 11B) are correlated with the feed timing. Supplementation on day 3 most strongly impacted the course of the culture. At harvest, the cell density amounted to 9.8×10^6 viable cells/mL (control: 11.8×10^6 viable cells/mL). […] Feed addition on day 5 and 7, respectively, entailed viabilities on day 14 of 78 and 90% (control: 93%). According to FIG. 11C, no clear titer trend came forward. Early supplementation induced a slight titer increase on days 7 and 10, but then reduced productivity at later stages of the culture.

[5] = test system: galactosylation of mAb1 antibody (cell line 1); assay: Glycosylation profile of mAb1, supplementation as feed after the start of the culture (CGE-LIF); assay type: cell-based, Chinese hamster
From the text: as §8, §6

## Rituxan: recombinant IgG whose degalactosylation was studied for CDC (Hodoniczky et al., 2005)
CDC activity
  change of CDC after degalactosylation relative to unmodified control Mab: reduced CDC by approximately half

## CC(=O)OC[C@H]1O[C@@H](OC(C)=O)[C@H](F)[C@@H](OC(C)=O)[C@H]1OC(C)=O [β-2F-pGal, α/β-D-galactopyranose, 2-deoxy-2-fluoro-,1,3,4,6-tetraacetate]
[1]; concentration higher than 60 μM
  decrease of titers comparing to control: about 1.2 factor
[1]; concentrations between 30 and 60
  impact on protein titre: no impact on protein titre
[1]; concentrations of about 60 μM and higher
  impact on cell growth: negative impact on cell growth
[1]; concentrations up to 30 μM in medium
  impact on cell growth until the end of culture: no impact on cell growth
[1]; media concentration up to 60 μM, day 10 and day 14
  protein titer compared to the control: stays above the protein titer of the control
[1]; media concentrations below 30 μM
  impact on cell density, cell viability and protein titer: do not impact
[2]; 30 μM
  G1F absolute change compared to the control: 1.1%
  G2F absolute change compared to the control: 0.20%
  absolute change in galactosylated N-oligosaccharide compared to the control: 2.2%
  relative decrease of galactosylated N-oligosaccharides compared to control: 22%
[2]; 30 μM in medium
  galactosylated N-oligosaccharides of the protein: 8.3%
[2]; 60 μM
  G1F absolute change compared to the control: 2.5%
  G2F absolute change compared to the control: 0.30%
  absolute change in galactosylated N-oligosaccharide compared to the control: 4.2%
  relative decrease of galactosylated N-oligosaccharides compared to control: 40%
[2]; 60 μM in medium
  galactosylated N-oligosaccharides of the protein: 6.4%
[2]; 120 μM
  G1F absolute change compared to the control: 3.1%
  G2F absolute change compared to the control: 0.33%
  absolute change in galactosylated N-oligosaccharide compared to the control: 5.4%
  relative decrease of galactosylated N-oligosaccharides compared to control: 52%
[2]; 120 μM in medium
  galactosylated N-oligosaccharides of the protein: 5.1%
[2]; 200 μM
  G1F absolute change compared to the control: 4.4%
  G2F absolute change compared to the control: 0.40%
  absolute change in galactosylated N-oligosaccharide compared to the control: 6.7%
  relative decrease of galactosylated N-oligosaccharides compared to control: 64%
[2]; 200 μM in medium
  galactosylated N-oligosaccharides of the protein: 3.9%
[2]; below 30
  inhibition effect on galactosylation: neither α- or β-2F-pGal does have a significant inhibition effect on galactosylation
[2]; concentrations higher than 30 μM
  inhibition effect on galactosylation: a significant inhibition effect is observed
[3]; 60 μM
  peak viable cell density at day 7: 12.8 ×10^6 viable cells/mL
[3]; 60 μM, listed as β-2F-p-galactose
  product titer at the end of the culture (day 14): 2225 mg/L
[3]; between 0 and 90 μM α-2F-p-galactose, 60 μM β-2F-p-galactose
  effect on cell culture performance: No detrimental effect
[3]; α 30-90 μM, β 60 μM, listed as β-2F-p-galactose
  protein titer compared to the control at culture days 5, 7, 10, 12 and 14: comparable to the control
[4]; 60 μM β anomer, shake tubes, CGE-LIF, unit not given
  total level of galactosylation decreased by (Example 2.2): −5.0
[4]; 60 μM, TubeSpin
  absolute change of galactosylated N-oligosaccharides compared to the control: around 4%
[4]; 60 μM, shake tubes, CGE-LIF, listed as β-2F-peracetyl-galactose
  monogalactosylated form changed by (Example 2.2): −4.7%
mAb1 cells (cell line 1); feed from day 3 (β-2F-pGal-d3)
  cell density at harvest: 9.8 ×106 viable cells/mL
  protein titer (yield of the culture): 2560 mg/L
mAb1 cells (cell line 1); feed from day 3 (β-2F-pGal-d3), second half of culture
  viability: below 60%
mAb1 cells (cell line 1); feed from day 3 (β-2F-pGal-d3: days 3, 5, 7, 10)
  peak cell density (day 7): 21.2 ×106 viable cells/mL
mAb1 cells (cell line 1); feed from day 5 (β-2F-pGal-d5)
  protein titer (yield of the culture): 3215 mg/L
  viability on day 14: 78%
mAb1 cells (cell line 1); feed from day 5 (β-2F-pGal-d5: days 5, 7, 10)
  maximum cell density: 18.6 ×106 viable cells/mL
mAb1 cells (cell line 1); feed from day 7 (β-2F-pGal-d7)
  protein titer (yield of the culture): 2100 mg/L
mAb1 cells (cell line 1); feed from day 7 (β-2F-pGal-d7: days 7, 10)
  viability on day 14: 90%
[5]; feed after the start of the culture
  effects on the other glycan species: remained small
[5]; feed from day 3
  di-galactosylated entity decrease: −0.41
  mono-galactosylated species drop: −8.0%
[5]; feed from day 3 (β-2F-pGal-d3)
  overall galactosylation decrease (absolute change vs control): −8.5%
[5]; feed from day 5
  di-galactosylated entity decrease: −0.33
  mono-galactosylated species drop: −6.7%
[5]; feed from day 5 (β-2F-pGal-d5)
  overall galactosylation decrease (absolute change vs control): −7.0%
[5]; feed from day 7
  di-galactosylated entity decrease: −0.19
  mono-galactosylated species drop: −4.4%
[5]; feed from day 7 (β-2F-pGal-d7)
  overall galactosylation decrease (absolute change vs control): −4.6%
